Data reported in patent US8765433B2, “Alcohol dehydrogenases (ADH) useful for fermentive production of lower alkyl alcohols” (priority 2009, dated 2014).

How the values were obtained:
Format in all cases: biochemical
[1] = molecular target: T1, horse liver ADH (HLADH), SEQ ID NO: 21 (Equus caballus, UniProt P00327); assay: isobutanol oxidation kinetics; conditions: 30° C., pH 8.8, 7.5 mM NAD
T1 construct: purchased Sigma A-6128
Description: (§1) As a routine practice, the crude extracts and purified proteins were assayed for butanol oxidation activity, in order to ensure that the recombinant proteins were active throughout the purification process. […] Alcohol oxidation activities were carried out in 50 mM sodium phosphate buffer at pH 8.8 and aldehyde reduction reactions were assayed in 190 mM potassium phosphate buffer at pH 7.0. Depending on the nature of reaction being carried out, the enzyme and cofactor stocks were diluted in the reaction buffers at the respective pHs. Either buffer or cell extract prepared from the proprietary E. coli strain (with no ADH plasmid) was used as the negative control for assays with purified protein and cell-free extracts, respectively.
Kinetic constants of the ADH enzymes were calculated and compared to identify those candidate ADH enzymes with the most desirable properties for the conversion of isobutyraldehyde to isobutanol in the last step of the engineered pathway for isobutanol production. The assays for determining the kinetic constants were carried out using initial rates from the assays described above. […] The concentration of a given enzyme was such that it was conducive for the measurement of initial velocities over a 1-min time course. For each enzyme, Michaelis-Menten plots were generated with a broad range of substrate concentrations. Rough estimates of KM were obtained, based on which the assays were redesigned so as to use substrate concentrations in the range 0.5 to 10 times the KM value, to be able to obtain the appropriate kinetic constants. […] When calculating the KI for isobutanol, the same reactions were carried out in the presence of varying concentrations of isobutanol (generally 0-535 mM) in the reaction (see FIG. 7, for example). Reactions with isobutanol substrate were performed at 30° C. in 50 mM Sodium phosphate buffer, pH 8.8, containing 7.5 mM NAD. The Enzyme kinetics module (Version 1.3) of SigmaPlot 11 (Systat Software, Inc.) was used to fit data to Michaelis-Menten equations and calculate the kinetic constants. The kcat/KM is derived from the individual numbers of kcat and KM and not an experimentally determined value. The ratios of the KM, KI, and kcat/KM for each candidate enzyme as compared to the same parameter for SadB are given in Table 9.
(§2) For those enzymes marked with an asterisk in Table 7, at least 3 assays were performed with separate preparations of the enzyme. All other numbers are values from either one assay or are averages from 2 assays performed with the same enzyme sample.

[2] = molecular target: T2, Clostridium beijerinckii ADH (CbADH), SEQ ID NO: 29 (Clostridium beijerinckii, UniProt P25984); assay: isobutyraldehyde reduction kinetics (A340, initial rates); conditions: relative to SadB
T2 construct: hexa-histidine (pBADHisA) (N); made in house; host or cells: E. coli (BL21-CodonPlus or a proprietary E. coli strain)
T2 sequence (P25984 1-351): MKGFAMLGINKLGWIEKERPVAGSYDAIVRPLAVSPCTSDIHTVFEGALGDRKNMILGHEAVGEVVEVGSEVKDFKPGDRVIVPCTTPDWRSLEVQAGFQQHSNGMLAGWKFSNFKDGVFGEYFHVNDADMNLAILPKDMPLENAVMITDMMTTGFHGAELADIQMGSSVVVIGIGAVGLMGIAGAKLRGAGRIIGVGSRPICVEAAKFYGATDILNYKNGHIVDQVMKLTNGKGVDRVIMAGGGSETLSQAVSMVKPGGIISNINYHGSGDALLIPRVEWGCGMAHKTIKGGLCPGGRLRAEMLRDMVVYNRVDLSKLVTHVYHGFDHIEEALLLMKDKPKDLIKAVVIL
From the text: (§3) This example describes preparation of ADH-gene constructs for over-expression/purification and measurement of enzyme activities using a time-course assay. Horse-liver ADH (HLADH; A-6128) was purchased from Sigma. Achromobacter xylosoxidans SadB (SadB), Saccharomyces cerevisiae ADH6 (ScADH6) and ADH7 (ScADH7), Entamoeba histolytica ADH1 (EhADH1), Bos Taurus Aldehyde Reductase (BtARD), Beijerinckia indica subsp. Indica ATCC 9039 (BiADH), Clostridium beijerinckii ADH (CbADH), Rana perezi ADH8 (RpADH8), Rattus norvegicus ADH1 (RnADH1), Thermus sp. ATN1 ADH (TADH), Phenylobacterium zucineum HLK1 ADH (PzADH), Methylocella silvestris BL2 ADH (MsADH), Acinetobacter baumannii AYE ADH (AbADH), Geobacillus sp. WCH70 ADH (GbADH), Vanderwaltozyma polyspora DSM 70294 ADH (VpADH), Mucor circinelloides ADH (McADH), and Rhodococcus erythropolis PR4ADH (ReADH) were the candidates for which subclones were prepared for protein expression and purification.
as §1
(§4) Kinetic constants of the ADH enzymes were calculated and compared to identify those candidate ADH enzymes with the most desirable properties for the conversion of isobutyraldehyde to isobutanol in the last step of the engineered pathway for isobutanol production. The assays for determining the kinetic constants were carried out using initial rates from the assays described above. […] The concentration of a given enzyme was such that it was conducive for the measurement of initial velocities over a 1-min time course. For each enzyme, Michaelis-Menten plots were generated with a broad range of substrate concentrations. Rough estimates of KM were obtained, based on which the assays were redesigned so as to use substrate concentrations in the range 0.5 to 10 times the KM value, to be able to obtain the appropriate kinetic constants. […] Reactions with isobutanol substrate were performed at 30° C. in 50 mM Sodium phosphate buffer, pH 8.8, containing 7.5 mM NAD. The Enzyme kinetics module (Version 1.3) of SigmaPlot 11 (Systat Software, Inc.) was used to fit data to Michaelis-Menten equations and calculate the kinetic constants. The kcat/KM is derived from the individual numbers of kcat and KM and not an experimentally determined value.
as §2

[3] = molecular target: T3, Thermus sp. ATN1 ADH (TADH), SEQ ID NO: 33 (Thermus sp. ATN1, UniProt B2ZRE3); assay: as above; conditions: relative to SadB
T3 sequence (B2ZRE3 1-347): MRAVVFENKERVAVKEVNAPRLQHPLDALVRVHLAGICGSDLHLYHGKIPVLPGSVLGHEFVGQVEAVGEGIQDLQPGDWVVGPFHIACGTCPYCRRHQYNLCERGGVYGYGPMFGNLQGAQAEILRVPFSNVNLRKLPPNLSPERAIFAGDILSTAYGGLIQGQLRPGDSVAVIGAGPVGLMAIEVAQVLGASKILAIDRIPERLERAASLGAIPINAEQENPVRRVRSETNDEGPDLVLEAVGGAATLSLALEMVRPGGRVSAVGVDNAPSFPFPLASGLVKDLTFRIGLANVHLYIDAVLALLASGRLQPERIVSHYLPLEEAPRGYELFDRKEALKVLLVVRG
From the text: as §3, §1, §4, §2

[4] = molecular target: T4, Rattus norvegicus ADH1 (RnADH1), SEQ ID NO: 32 (Rattus norvegicus, UniProt P06757); assay: as above
T4 construct: hexa-histidine (pBADHisA) (N); made in house; host or cells: E. coli (BL21-CodonPlus or a proprietary E. coli strain)
T4 sequence (P06757 whole entry): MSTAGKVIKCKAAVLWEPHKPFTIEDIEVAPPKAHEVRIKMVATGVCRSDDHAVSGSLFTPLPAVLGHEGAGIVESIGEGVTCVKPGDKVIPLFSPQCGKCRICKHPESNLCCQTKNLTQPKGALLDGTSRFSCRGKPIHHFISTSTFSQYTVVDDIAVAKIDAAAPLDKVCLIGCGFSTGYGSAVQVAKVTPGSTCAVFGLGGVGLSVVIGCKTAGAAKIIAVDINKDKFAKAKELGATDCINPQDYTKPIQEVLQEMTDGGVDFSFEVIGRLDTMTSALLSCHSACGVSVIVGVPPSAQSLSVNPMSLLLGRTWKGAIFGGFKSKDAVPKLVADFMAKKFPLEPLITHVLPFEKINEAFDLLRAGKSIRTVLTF
From the text: as §3, §1, §4, §2

T1 sequence (P00327 whole entry): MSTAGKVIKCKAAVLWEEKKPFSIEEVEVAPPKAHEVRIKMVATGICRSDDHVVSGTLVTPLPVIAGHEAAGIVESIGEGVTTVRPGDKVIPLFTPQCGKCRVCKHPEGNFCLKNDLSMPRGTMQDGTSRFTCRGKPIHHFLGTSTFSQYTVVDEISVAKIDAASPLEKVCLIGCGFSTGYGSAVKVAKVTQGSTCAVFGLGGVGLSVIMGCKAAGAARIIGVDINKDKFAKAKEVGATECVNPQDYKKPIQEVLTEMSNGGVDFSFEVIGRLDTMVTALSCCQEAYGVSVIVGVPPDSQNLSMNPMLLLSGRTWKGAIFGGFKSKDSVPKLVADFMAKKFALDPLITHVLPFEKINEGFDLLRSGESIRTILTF

Structure (SMILES)	kcat (isobutanol oxidation) [1]	KM as a percentage of the same parameter for SadB [2]	kcat as a percentage of the same parameter for SadB [2]	kcat/KM as a percentage of the same parameter for SadB [2]	KM as a percentage of the same parameter for SadB [3]	kcat as a percentage of the same parameter for SadB [3]	kcat/KM as a percentage of the same parameter for SadB [3]	Km ([4]; 30° C., pH 7.0, NADH specific, low KM precludes accurate determination, read-out: KM (Isobutanal))	kcat ([4]; isobutyraldehyde reduction, 30° C., pH 7.0, NADH specific)	KM as a percentage of the same parameter for SadB ([4]; relative to SadB)	kcat as a percentage of the same parameter for SadB ([4]; relative to SadB)	kcat/KM as a percentage of the same parameter for SadB ([4]; relative to SadB)
CC(C)CO [isobutanol, 2-methylpropan-1-ol]	[Isobutanol oxidation: kcat = 5 sec^−1;											
CC(C)C=O [isobutyraldehyde]		150%	113%	81%	130%	14%	10%	≤ 3 µM	~5 s⁻¹	<1%	5%	1588%
